≈ marks a conversion by molar mass, not a printed value.
System: SA 9218
Assay: MIC by standard agar dilution method
Assay type: cell-based
Conditions: Mueller Hinton agar, 10^4 to 10^5 cells per spot, incubated overnight at 35° C., lowest concentration that inhibits visible growth
In short: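 MIC read after overnight 35 °C incubation as lowest drug level preventing visible growth. Inoculum of roughly 10^4–10^5 cells per spot (0.5 McFarland, 1:20 in TSB) applied to Mueller Hinton agar containing serial 2-fold compound dilutions.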

MIC | SA 9218 MIC | SMILES
4 mg/L (≈ 10.8 µM) |  | O=C(Nc1ccc(Cl)cc1C(=O)O)c1ccc(C(=O)C2CCCC2)cc1 [drawing 1111]
 | 8 mg/L | O=C(Nc1ccc(Cl)cc1C(=O)O)c1cccc(C(=NO)c2ccco2)c1 [drawing 1121]
 | 64 mg/L | C=CCON=C(c1ccc(C(=O)Nc2ccc(Cl)cc2C(=O)O)cc1)c1ccco1 [drawing 1123]
 | 1 mg/L | Cc1ccc(C(=O)Nc2ccc(Br)cc2C(=O)O)cc1S(=O)(=O)N(C)c1ccc(Cl)cc1 [drawing 1134]

From US20050113450A1, “Antibacterial agents” (priority 2002, published 2005)
